Results reported in ChEMBL document CHEMBL1201862, “PubChem BioAssay data set” (2004).
Activity calls are given as the source filed them.

What was measured:
Cytochrome P450 3A4 [1] = target: T1, Cytochrome P450 3A4 (Homo sapiens, UniProt P08684); details: Potency
[2] = target: Voltage-gated inwardly rectifying potassium channel KCNH2 (Homo sapiens, UniProt Q12809); details: Potency;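 further: confirmatory quantitative high-throughput screen measuring inhibition of hERG channel activity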
[3] = target: Glucose-6-phosphate 1-dehydrogenase (Homo sapiens, UniProt P11413); test: human G6PD enzyme inhibitors, dose response, selectivity assay for P. falciparum G6PD inhibitor project, biochemical, fluorescence (AID 504792); assay type: functional
Glucose-6-phosphate 1-dehydrogenase, sequence (P11413 whole entry): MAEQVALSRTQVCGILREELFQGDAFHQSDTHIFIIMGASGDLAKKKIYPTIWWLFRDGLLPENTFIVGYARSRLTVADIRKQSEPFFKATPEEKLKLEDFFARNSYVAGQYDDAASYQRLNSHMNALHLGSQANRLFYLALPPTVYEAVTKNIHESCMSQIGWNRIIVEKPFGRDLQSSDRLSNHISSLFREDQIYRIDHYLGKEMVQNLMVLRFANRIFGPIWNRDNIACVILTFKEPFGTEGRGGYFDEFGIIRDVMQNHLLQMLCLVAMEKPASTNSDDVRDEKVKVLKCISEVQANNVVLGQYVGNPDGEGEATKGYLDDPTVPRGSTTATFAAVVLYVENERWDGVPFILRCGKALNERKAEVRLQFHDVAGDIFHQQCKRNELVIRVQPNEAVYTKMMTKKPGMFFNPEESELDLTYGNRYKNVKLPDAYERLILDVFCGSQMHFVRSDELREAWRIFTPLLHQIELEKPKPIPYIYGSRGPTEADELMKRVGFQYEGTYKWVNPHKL

Cytochrome P450 2D6 [4] = target: T2, Cytochrome P450 2D6 (Homo sapiens, UniProt P10635);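 further: CYP2D6 member of a cytochrome P450 panel assay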
T2 sequence (P10635 whole entry): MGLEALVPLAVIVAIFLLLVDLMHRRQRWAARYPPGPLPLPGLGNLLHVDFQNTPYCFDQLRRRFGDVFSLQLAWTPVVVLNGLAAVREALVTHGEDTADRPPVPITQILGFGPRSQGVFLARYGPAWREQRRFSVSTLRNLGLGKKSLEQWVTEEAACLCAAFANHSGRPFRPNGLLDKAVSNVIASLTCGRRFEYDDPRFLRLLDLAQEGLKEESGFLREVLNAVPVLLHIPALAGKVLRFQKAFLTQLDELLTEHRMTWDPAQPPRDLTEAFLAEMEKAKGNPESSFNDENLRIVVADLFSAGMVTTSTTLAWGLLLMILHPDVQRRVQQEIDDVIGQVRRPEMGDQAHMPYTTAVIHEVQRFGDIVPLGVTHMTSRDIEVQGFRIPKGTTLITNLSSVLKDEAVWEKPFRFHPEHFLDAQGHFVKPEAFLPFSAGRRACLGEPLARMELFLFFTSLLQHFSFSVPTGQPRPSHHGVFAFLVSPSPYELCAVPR

HEK293 = test: cells; assay type: functional, cell-based; details: Homo sapiens
[5] = target: T3, Nuclear receptor subfamily 0 group B member 1 (Homo sapiens, UniProt P51843); test: Luminescence-based cell-based high throughput dose response assay for inhibitors of the orphan nuclear receptor subfamily 0, group B, member 1 (DAX1; NR0B1). [Related pubchem assays (depositor defined):AID504766, AID504790]; assay type: functional
T3 sequence (P51843 whole entry): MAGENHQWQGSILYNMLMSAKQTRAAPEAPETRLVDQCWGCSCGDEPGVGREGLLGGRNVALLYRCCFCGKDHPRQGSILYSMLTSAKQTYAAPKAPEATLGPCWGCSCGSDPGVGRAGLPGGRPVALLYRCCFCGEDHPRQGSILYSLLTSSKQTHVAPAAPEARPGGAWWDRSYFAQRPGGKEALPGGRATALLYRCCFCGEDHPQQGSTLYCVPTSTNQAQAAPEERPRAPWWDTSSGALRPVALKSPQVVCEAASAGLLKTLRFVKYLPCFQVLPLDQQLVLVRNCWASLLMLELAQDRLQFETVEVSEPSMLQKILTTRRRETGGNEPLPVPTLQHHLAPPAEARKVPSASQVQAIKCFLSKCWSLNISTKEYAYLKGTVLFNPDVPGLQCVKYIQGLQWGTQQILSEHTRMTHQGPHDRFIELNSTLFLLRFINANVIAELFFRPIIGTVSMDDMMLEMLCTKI

Cytochrome P450 1A2 = target: T4, Cytochrome P450 1A2 (Homo sapiens, UniProt P05177);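 further: PubChem cytochrome P450 panel assay, CYP1A2 panel member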
T4 sequence (P05177 whole entry): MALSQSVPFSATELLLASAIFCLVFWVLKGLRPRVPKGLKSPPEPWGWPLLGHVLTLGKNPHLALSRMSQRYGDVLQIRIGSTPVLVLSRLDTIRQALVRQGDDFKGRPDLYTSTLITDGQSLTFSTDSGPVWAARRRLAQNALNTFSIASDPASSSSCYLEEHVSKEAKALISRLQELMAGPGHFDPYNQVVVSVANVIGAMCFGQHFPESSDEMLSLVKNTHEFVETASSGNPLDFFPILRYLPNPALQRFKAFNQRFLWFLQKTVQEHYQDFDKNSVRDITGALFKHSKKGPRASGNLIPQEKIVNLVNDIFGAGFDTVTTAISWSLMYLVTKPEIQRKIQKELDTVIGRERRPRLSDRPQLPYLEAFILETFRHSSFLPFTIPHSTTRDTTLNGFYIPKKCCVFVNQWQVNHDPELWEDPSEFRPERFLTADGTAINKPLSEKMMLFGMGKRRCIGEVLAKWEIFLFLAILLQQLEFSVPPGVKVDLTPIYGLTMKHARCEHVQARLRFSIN

Cytochrome P450 3A4 [6] = target: T1, Cytochrome P450 3A4
[7] = target: T5, Polyadenylate-binding protein 1 (Homo sapiens, UniProt P11940); test: PABP1 MLLE–PAM2 interaction inhibitors, dose response, miRNA deadenylation inhibitor project, biochemical, fluorescence polarization, Cy5-PAM2 peptide, secondary (AID 602260); assay type: functional; details: read-out: IC50_Mean
T5 sequence (P11940 whole entry): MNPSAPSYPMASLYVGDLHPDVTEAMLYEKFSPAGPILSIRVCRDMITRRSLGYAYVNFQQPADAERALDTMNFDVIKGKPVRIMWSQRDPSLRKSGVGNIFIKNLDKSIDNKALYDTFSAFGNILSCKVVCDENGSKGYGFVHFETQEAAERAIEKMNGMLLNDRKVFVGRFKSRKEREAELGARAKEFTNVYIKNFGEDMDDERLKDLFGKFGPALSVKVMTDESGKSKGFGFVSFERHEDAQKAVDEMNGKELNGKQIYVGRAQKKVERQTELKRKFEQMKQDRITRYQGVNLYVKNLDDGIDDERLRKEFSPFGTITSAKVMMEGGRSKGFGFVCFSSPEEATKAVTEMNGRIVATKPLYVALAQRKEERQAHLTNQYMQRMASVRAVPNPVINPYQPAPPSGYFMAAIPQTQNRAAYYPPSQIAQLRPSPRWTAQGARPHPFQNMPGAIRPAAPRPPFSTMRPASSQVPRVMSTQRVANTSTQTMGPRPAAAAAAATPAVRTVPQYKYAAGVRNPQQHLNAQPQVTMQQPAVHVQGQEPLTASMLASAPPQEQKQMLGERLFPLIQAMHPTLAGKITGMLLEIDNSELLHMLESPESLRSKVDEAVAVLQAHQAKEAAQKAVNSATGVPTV

[8] = target: T6, Calpain-2 catalytic subunit (Sus scrofa, UniProt P43367); test: pig calpain II inhibitor potency, dose response, biochemical, fluorogenic peptide substrate (AID 1420); assay type: functional
T6 sequence (P43367 whole entry): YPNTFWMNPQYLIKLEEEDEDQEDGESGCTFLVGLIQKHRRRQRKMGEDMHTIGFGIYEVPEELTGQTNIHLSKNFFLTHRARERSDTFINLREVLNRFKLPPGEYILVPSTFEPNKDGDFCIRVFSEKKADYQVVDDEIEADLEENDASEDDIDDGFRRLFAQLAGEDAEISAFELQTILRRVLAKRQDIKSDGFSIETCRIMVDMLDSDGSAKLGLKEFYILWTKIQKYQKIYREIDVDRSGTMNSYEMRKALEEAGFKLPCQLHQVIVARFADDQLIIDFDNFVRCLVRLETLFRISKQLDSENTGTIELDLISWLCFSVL

[9] = target: Disintegrin and metalloproteinase domain-containing protein 17 (Homo sapiens, UniProt P78536); test: exosite inhibitors of ADAM17, dose response, biochemical (AID 743260)
Disintegrin and metalloproteinase domain-containing protein 17, sequence (P78536 whole entry, the tested form may be a part): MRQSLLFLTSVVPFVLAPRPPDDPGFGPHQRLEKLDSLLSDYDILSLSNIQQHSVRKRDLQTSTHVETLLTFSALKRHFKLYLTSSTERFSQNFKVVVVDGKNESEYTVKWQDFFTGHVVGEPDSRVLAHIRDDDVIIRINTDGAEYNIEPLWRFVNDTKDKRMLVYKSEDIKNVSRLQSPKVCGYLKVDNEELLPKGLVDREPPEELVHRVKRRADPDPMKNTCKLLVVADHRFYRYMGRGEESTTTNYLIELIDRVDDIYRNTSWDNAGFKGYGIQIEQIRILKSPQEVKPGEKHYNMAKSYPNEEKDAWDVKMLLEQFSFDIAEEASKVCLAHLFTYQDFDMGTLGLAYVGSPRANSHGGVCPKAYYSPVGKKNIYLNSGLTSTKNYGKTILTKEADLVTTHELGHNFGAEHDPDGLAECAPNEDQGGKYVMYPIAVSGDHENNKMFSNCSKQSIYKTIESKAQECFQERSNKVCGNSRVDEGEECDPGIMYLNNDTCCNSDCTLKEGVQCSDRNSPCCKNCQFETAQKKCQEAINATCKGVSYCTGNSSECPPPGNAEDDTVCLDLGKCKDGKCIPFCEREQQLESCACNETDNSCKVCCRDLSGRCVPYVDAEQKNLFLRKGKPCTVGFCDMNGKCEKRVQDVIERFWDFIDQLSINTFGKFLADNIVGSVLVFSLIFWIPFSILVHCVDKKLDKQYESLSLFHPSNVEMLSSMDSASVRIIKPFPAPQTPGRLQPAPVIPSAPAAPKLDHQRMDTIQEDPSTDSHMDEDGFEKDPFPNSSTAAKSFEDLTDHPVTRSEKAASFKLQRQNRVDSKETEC

[10] = target: T7, High affinity choline transporter 1 (Homo sapiens, UniProt Q9GZV3); test: CHT inhibitors, dose response, cell-based, 5-point CRC, membrane potential dye (AID 504840); assay type: functional
T7 sequence (Q9GZV3 whole entry): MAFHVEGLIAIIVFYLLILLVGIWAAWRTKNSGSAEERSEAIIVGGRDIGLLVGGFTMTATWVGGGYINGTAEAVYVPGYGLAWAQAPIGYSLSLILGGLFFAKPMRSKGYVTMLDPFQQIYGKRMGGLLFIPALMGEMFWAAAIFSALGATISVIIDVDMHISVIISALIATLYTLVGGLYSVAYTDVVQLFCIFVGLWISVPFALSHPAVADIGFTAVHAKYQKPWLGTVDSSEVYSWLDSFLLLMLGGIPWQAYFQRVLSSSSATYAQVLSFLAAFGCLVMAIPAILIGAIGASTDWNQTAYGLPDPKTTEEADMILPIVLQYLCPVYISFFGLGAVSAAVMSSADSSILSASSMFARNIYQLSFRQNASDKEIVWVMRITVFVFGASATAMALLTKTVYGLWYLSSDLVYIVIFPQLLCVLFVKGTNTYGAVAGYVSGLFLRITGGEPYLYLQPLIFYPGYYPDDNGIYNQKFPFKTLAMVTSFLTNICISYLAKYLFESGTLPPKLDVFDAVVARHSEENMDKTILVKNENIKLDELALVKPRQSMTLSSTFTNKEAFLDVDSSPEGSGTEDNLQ

[11] = target: T5, Polyadenylate-binding protein 1; test: PABP1 MLLE–PAM2 binding inhibitor potency, dose response, biochemical, fluorescence polarization, FITC-PAM2 peptide (AID 602259); assay type: functional; details: read-out: IC50_Mean
Cytochrome P450 2D6 [12] = target: T2, Cytochrome P450 2D6; remark: listed apart in the source
Cytochrome P450 2C19 = Cytochrome P450 2C19 (Homo sapiens, UniProt P33261); test: Cytochrome panel assay with activity outcomes. Panel member name: p450-cyp2c19 Compounds with AC50 equal or less than 10 uM are considered active; assay type: functional; details: read-out: AC50
Cytochrome P450 2C19, sequence (P33261 whole entry): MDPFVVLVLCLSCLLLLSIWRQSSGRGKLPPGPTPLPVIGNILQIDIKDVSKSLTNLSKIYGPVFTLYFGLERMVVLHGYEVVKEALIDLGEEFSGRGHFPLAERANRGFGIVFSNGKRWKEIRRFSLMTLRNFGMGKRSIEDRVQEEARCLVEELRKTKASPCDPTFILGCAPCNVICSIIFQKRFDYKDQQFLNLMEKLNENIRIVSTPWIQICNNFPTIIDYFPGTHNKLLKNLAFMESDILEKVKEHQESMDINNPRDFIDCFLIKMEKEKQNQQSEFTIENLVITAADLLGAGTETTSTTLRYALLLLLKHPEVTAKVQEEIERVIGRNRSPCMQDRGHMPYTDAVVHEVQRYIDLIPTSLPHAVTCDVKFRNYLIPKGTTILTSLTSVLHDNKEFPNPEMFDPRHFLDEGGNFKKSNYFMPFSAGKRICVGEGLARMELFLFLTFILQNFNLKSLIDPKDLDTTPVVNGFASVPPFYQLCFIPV

T1 sequence (P08684 whole entry): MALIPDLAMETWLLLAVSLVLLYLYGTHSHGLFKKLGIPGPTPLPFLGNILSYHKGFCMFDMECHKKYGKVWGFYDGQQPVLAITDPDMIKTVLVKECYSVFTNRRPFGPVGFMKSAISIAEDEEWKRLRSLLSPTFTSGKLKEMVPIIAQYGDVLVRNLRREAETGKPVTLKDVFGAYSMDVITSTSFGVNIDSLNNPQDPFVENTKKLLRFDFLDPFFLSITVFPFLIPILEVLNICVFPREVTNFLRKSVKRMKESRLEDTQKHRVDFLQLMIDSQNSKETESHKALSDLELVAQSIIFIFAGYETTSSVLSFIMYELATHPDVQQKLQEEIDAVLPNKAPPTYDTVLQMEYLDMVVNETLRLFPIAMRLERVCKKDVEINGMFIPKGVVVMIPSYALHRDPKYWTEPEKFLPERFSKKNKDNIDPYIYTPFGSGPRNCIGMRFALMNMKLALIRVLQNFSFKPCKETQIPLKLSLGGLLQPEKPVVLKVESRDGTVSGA
Voltage-gated inwardly rectifying potassium channel KCNH2, sequence (Q12809 whole entry): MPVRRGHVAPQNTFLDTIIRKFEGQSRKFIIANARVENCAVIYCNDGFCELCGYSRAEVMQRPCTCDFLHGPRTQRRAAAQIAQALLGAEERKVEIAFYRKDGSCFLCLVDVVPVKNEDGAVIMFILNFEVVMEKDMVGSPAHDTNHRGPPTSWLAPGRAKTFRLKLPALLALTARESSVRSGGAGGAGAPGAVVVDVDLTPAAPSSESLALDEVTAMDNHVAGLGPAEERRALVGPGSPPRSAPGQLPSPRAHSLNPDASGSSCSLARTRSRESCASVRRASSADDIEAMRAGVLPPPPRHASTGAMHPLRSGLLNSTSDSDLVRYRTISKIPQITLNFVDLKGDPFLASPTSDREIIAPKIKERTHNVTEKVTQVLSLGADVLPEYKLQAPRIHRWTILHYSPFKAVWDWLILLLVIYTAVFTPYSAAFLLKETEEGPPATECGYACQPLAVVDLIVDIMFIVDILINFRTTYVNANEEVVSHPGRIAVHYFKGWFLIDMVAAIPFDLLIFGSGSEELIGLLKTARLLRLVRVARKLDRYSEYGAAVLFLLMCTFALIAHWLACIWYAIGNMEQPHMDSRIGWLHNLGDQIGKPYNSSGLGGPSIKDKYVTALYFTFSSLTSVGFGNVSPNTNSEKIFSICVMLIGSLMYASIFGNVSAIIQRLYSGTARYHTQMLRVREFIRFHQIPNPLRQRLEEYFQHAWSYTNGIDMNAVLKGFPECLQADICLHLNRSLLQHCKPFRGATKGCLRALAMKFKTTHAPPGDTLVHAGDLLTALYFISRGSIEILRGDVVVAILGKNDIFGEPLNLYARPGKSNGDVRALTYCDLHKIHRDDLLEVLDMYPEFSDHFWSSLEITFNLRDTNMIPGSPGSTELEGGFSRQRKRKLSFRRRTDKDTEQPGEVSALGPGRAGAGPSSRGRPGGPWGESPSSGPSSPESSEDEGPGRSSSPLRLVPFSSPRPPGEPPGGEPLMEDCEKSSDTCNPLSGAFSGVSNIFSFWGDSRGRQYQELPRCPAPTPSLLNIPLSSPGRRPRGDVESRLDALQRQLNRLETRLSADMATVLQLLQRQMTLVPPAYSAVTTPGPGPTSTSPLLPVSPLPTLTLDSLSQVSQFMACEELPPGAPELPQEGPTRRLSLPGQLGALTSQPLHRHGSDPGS

Q: How did the AC50 (Cytochrome P450 3A4 [1]) turn out when `Nc1ccccc1C(=O)OCCc1ccccc1` was run?
A: 12.6 µM (inconclusive)

Q: And the AC50 [2]?
A: 39.8 µM (inconclusive)

Q: Which IC50 [3] does the source give for `N#Cc1ccc(Oc2cccc3cccnc23)c([N+](=O)[O-])c1` here?
A: > 80 µM (inactive)

Q: How did the AC50 (Cytochrome P450 2D6 [4]) turn out when `CCc1c(C)[nH]c2c1C(=O)[C@H](CN1CCOCC1)CC2.Cl` [MOLINDONE HYDROCHLORIDE] was run?
A: inactive

Q: With `COCCCNC(=O)c1ccc(CN2CCc3ccccc3C2)cc1` as the compound, how does the IC50 (HEK293) read?
A: > 67.5 µM (inactive)

Q: And the IC50 [5]?
A: > 67.5 µM (inactive)

Q: How did the AC50 (Cytochrome P450 2D6 [4]) turn out when `COc1cccc(CN2C(=O)N(C(C)C)C(N(O)C(=O)NC(C)C)C2(C)C)c1OC` (stereo not given) was run?
A: inconclusive

Q: `O=C(Oc1ccccc1)N1CCC2(CC1)CCN(c1cccc(-c3ccccc3)c1)CC2` was tested. Which AC50 (Cytochrome P450 1A2) did it give?
A: 12.6 µM (inconclusive)

Q: What about the AC50 (Cytochrome P450 3A4 [6]) of the same compound?
A: inconclusive

Q: `O=C(/C=C/c1ccc2c(c1)OCCO2)c1ccc(O)cc1` was tested. Which IC50 (HEK293) did it give?
A: > 2.5 µM (active)

Q: What about the IC50 [5] of the same compound?
A: > 67.6 µM (inactive)

Q: With `S=c1[nH]nc(-c2sccc2OCc2ccc(Cl)cc2Cl)[nH]1` as the compound, how does the IC50 [7] read?
A: > 66 µM (inactive)

Q: And the IC50 [8]?
A: 10.1 µM (not active)

Q: What about the IC50 [9] of the same compound?
A: > 69.5 µM (inactive)

Q: And the IC50 [10]?
A: 11.5 µM (active)

Q: And the IC50 [11]?
A: > 66 µM (inactive)

Q: For `COc1ccc(CN(C)S(=O)(=O)c2nnc(NC(=O)c3ccc(C)cc3)s2)cc1OC`, which IC50 [3] is on record?
A: 46 µM (inactive)

Q: For `COC(=O)N1CCC2(CC1)CCN(c1ccccn1)CC2`, which AC50 (Cytochrome P450 2D6 [12]) is on record?
A: 10 µM (inconclusive)

Q: And the AC50 (Cytochrome P450 2C19)?
A: 10 µM (inconclusive)

Q: And the AC50 (Cytochrome P450 3A4 [6])?
A: inconclusive
